In this data set the test system is INS-1 cells. In words: Lactate dehydrogenase (LDH) release cytotoxicity test (necrosis). The data set is classed as cell-based, rat. The following applies: for % cytotoxicity values: LDH secretion; for cytotoxicity value percentages: 24 h, positive control (lysis) 100%. The method, then:
Lactate dehydrogenase (LDH) release test is based on the measurement of the activity of lactate dehydrogenase which is a cytoplasmic enzyme released from the dead cells or cells with damaged plasma membrane and it is used in cellular cytotoxicity assessment. The cytotoxic effect of palmitic acid on […] pancreatic INS-1 cell strain was determined by LDH activity released from the damaged cells and for this purpose Cytotoxicity Determination Kit, LDH (Roche Molecular Marker) was used.
In LDH test, as well as the experimental groups wherein palmitic acid was applied, negative control group for spontaneous LDH release from the cells and positive control group for LDH release were studied. Since palmitic acid in 0.5, 0.75 and 1 mM doses decreases the cell viability, these doses and the control group of the highest dose were studied. The cells were removed by trypsin-EDTA and centrifuged, after growth in 75 cm^2 flask. The cells were suspended in medium in a way such that there would be 50 000 cells in 100 µl, and 100 µl cell suspension was transferred into plates with 96 wells. 10 wells were studied for each of the control and experiment groups and the experiment was repeated for 3 times. After the incubation for 24 hours, the control groups were washed with PBS, and they were freshened with the medium without sodium pyruvate and beta-mercaptoethanol. The medium of the experiment groups was changed with the medium containing different concentrations of palmitic acid. Following the incubation of the cells with palmitic acid for 24 hours, LDH activity released from the cells was determined according to the instructions of the manufacturer. 5 µl lysis solution (2% Triton-X-100) was added to the wells of positive control group and the plate was incubated at 37 °C for 15 minutes. In order to measure LDH activity, the fresh reaction mixture prepared containing catalyst (Diaphorase+NAD mixture) and paint solution (Iodotetrazolium chloride (INT) and sodium lactate) was added to each of the wells. Following the incubation at room temperature for 30 minutes, the reaction was stopped by adding 50 µl stopping solution (IN HCl) to each of the wells. The plates were shaken in an orbital shaker for 10 seconds and the spectrophotometric absorbance was measured in 490 nm test wavelength and 690 nm reference wavelength. The results were determined as "cytotoxicity %". The average absorbance values of negative control were extracted from control and experiment groups and they were calculated by using the formula below by comparing control and experiment groups according to positive control group, and by assuming that positive control group is 100% cytotoxic: 100% Cytotoxicity = ((Experiment or Control Value)−(Negative Control))/((Positive Control)−(Negative Control)) × 100 [formula]
Lactate dehydrogenase release in INS-1 cells wherein different palmitic acid doses were applied was measured using cytotoxicity kit and the results are shown in Figure 4.
Protective and therapeutic effect of 10 nM curaglutide on necrosis is shown in Figure 10 by the evaluation of LDH secretion at 3 and 4 mM doses in INS-1 beta cells. According to the results, in INS-1 beta cells % cytotoxicity values are 48.2±2 in the group where 3 mM dose (necrotic dose) of palmitic acid was administered, 11.6±2.9 in the group where 10 nM curaglutide was administered as a protective against necrotic dose, 11.6±4.8 in the group where 10 nM curaglutide was supplied as a curative agent in necrotic dose, 81.3±5.9 in the group where 4 mM dose of palmitic acid was administered, […] in the group where curaglutide was administered as a protective against 4 mM palmitic acid, 68.2±7.2 in the group where 10 nM curaglutide was administered as therapeutic at 4 mM dose of palmitic acid. As compared to the control group, statistically meaningful results were obtained in both doses in terms of protective effect (p<0,0001). […]

Regarding `CC[C@H](C)[C@H](NC(=O)[C@H](Cc1ccccc1)NC(=O)[C@H](CCC(=O)O)NC(=O)[C@H](CCCCN)NC(=O)[C@H](C)NC(=O)[C@H](C)NC(=O)[C@H](CCC(N)=O)NC(=O)CNC(=O)[C@H](CCC(=O)O)NC(=O)[C@H](CC(C)C)NC(=O)[C@H](Cc1ccc(O)cc1)NC(=O)[C@H](CO)NC(=O)[C@H](CO)NC(=O)[C@@H](NC(=O)[C@H](CC(=O)O)NC(=O)[C@H](CO)NC(=O)[C@@H](NC(=O)[C@H](Cc1ccccc1)NC(=O)[C@@H](NC(=O)CNC(=O)[C@H](CCC(=O)O)NC(=O)[C@H](C)NC(=O)[C@H](Cc1c[nH]cn1)NC(C)=O)[C@@H](C)O)[C@@H](C)O)C(C)C)C(=O)N[C@@H](C)C(=O)N[C@@H](Cc1c[nH]c2ccccc12)C(=O)N[C@@H](CC(C)C)C(=O)N[C@H](C(=O)N[C@@H](CCCCN)C(N)=O)C(C)C` [curaglutide], the “% cytotoxicity values” runs as follows: (10 nM curaglutide as curative agent, 3 mM palmitic acid (necrotic dose)) 11.6±4.8%; (10 nM curaglutide as protective against 3 mM palmitic acid (necrotic dose)) 11.6±2.9%; (10 nM curaglutide as therapeutic at 4 mM palmitic acid) 68.2±7.2%; (curaglutide as protective against 4 mM palmitic acid) 45.8±6.8%.
For `CCCCCCCCCCCCCCCC(=O)O` [palmitic acid], the cytotoxicity value percentages is, setting by setting: (1 mM palmitic acid) 1±0%; (2 mM palmitic acid) 13.5±2.4%; (3 mM palmitic acid (necrotic dose)) 48.2±2%; (4 mM palmitic acid) 81.3±5.9%.

For the origin of these results see patent publication EP3351262A1, “CURAGLUTIDE FOR IN TREATMENT OF PREDIABETES, DIABETES, OBESITY AND METABOLIC DISEASES ASSOCIATED THERETO” (Istanbul Universitesi Rektorlugu, priority 2016, dated 2018).
